# System: Verticillium dahliae
# Assay: Antifungal activity against Verticillium dahliae assessed as inhibition of mycelial radial growth measured after 350 hr
# Type: functional, organism-based
row,Compound,IC50 [µg/mL]
1,OCCc1ccc(O)cc1 [TYROSOL],660
2,O=C(O)/C=C/c1ccc(O)cc1 [COUMARIC ACID],1470
3,C[C@@H]1O[C@@H](OC[C@H]2O[C@@H](Oc3c(-c4ccc(O)c(O)c4)oc4cc(O)cc(O)c4c3=O)[C@H](O)[C@@H](O)[C@@H]2O)[C@H](O)[C@H](O)[C@H]1O [RUTIN],80
4,O=c1cc(-c2ccc(O)c(O)c2)oc2cc(O)cc(O)c12 [LUTEOLIN],7
5,C/C=C1/[C@H](O[C@@H]2O[C@H](CO)[C@@H](O)[C@H](O)[C@H]2O)OC=C(C(=O)OC)[C@H]1CC(=O)OCCc1ccc(O)c(O)c1 [OLEUROPEIN],170
6,O=c1c(O)c(-c2ccc(O)c(O)c2)oc2cc(O)cc(O)c12 [QUERCETIN],6
7,O=c1cc(-c2ccc(O)c(O)c2)oc2cc(O[C@@H]3O[C@H](CO)[C@@H](O)[C@H](O)[C@H]3O)cc(O)c12 [GALUTEOLIN],260
8,Oc1cc(O)c2c(c1)OC(c1ccc(O)c(O)c1)C(O)C2 (stereo not drawn) [CATECHIN],2100

# Reference: ChEMBL document CHEMBL3045477, “Dysfunctionality of the xylem in Olea europaea L. Plants associated with the infection process by Verticillium dahliae Kleb. Role of phenolic compounds in plant defense mechanism” (J Agric Food Chem, 2007)
